test system: MV4:11 human cancer cell lines; assay: Cellular viability / anti-proliferative activity, CellTiter-Glo, 5 day protocol; format: cell-based; conditions: Homo sapiens, MV4-11, 120 h, MV4:11 cells; 5 day incubation; CellTiter-Glo; mean of minimum two replicates; read-out: GI50 on cellular proliferation of MV4:11 human cancer cell lines
Experimental: Cellular Viability of Human Tumor Cell Lines
Anti proliferative activity using MLL-harboring cell lines. […] Viability assays are performed by dispensing 200 cells at 7200 cells/mL into each well of an opaque 384-well plate and adding compounds at the indicated concentrations in a final volume of 32 μL and a final concentration of DMSO of 0.3% for all samples. A certain range of compound concentrations is made through a series of 2-fold dilutions starting 30 μM at the highest, total 22 dilutions. After a set incubation period, 5 day protocol, the viability of cells in each well is assessed using the CellTiter-Glo assay (Promega), read on a 96 Microplane Luminometer (Cytation 3, BioTek). Serial dilutions of each cell type are performed in all assays to generate standard curves and the final densities of cells are determined within the dynamic range of the instrument. GI50 values are calculated based on XLfit software (IDBS, Guildford, UK) with Sigmoidal Dose-Response Model. Each compound is tested in minimum of two replicates. Data are expressed as mean.

| SMILES | GI50 [µM] |
| --- | --- |
| Cc1cc([C@H](C)N2CCc3c(cc(Cn4ccnc4C)cc3-c3cn(C)nc3C(F)(F)F)C2=O)ccc1F [Example 24, (S)-2-(1-(4-Fluoro-3-methylphenyl)ethyl)-7-((2-methyl-1H-imidazol-1-yl)methyl)-5-(1-methyl-3-(trifluoromethyl)-1H-pyrazol-4-yl)-3,4-dihydroisoquinolin-1(2H)-one] | < 0.05 |
| COc1cc(CN2CCc3cc(F)c(Cn4ccn(C)c4=N)cc3C2=O)cc(OC)c1 [Example 25, 2-(3,5-Dimethoxybenzyl)-6-fluoro-7-((2-imino-3-methyl-2,3-dihydro-1H-imidazol-1-yl)methyl)-3,4-dihydroisoquinolin-1(2H)-one] | > 0.938 |
| Cn1ccn(Cc2cc3c(cc2F)CCN(Cc2ccc(Cl)c(Cl)c2)C3=O)c1=N [Example 26, 2-(3,4-Dichlorobenzyl)-6-fluoro-7-((2-imino-3-methyl-2,3-dihydro-1H-imidazol-1-yl)methyl)-3,4-dihydroisoquinolin-1(2H)-one] | > 0.938 |
| COc1cc(CN2CCc3c(cc(Cn4ccn(C)c4=N)cc3-c3cccnc3C(F)(F)F)C2=O)cc(OC)c1 [Example 35, 2-(3,5-Dimethoxybenzyl)-7-((2-imino-3-methyl-2,3-dihydro-1H-imidazol-1-yl)methyl)-5-(2-(trifluoromethyl)pyridin-3-yl)-3,4-dihydroisoquinolin-1(2H)-one] | 0.143 |
| COc1cc(CN2CCc3c(cc(Cn4ccn(C5CC5)c4=N)cc3-c3ccc(F)cc3C)C2=O)cc(OC)c1 [Example 38, 7-((3-Cyclopropyl-2-imino-2,3-dihydro-1H-imidazol-1-yl)methyl)-2-(3,5-dimethoxybenzyl)-5-(4-fluoro-2-methylphenyl)-3,4-dihydroisoquinolin-1(2H)-one] | 0.095 |
| COc1cc(CN2CCc3c(cc(Cn4ccn(C)c4=N)cc3-c3cn(C)nc3C(F)(F)F)C2=O)cc(OC)c1 [Example 39, 2-(3,5-Dimethoxybenzyl)-7-((2-imino-3-methyl-2,3-dihydro-1H-imidazol-1-yl)methyl)-5-(1-methyl-3-(trifluoromethyl)-1H-pyrazol-4-yl)-3,4-dihydroisoquinolin-1(2H)-one] | < 0.05 |
| COc1ccnc(CN2CCc3c(cc(Cn4ccn(C)c4=N)cc3-c3cn(C)nc3C(F)(F)F)C2=O)c1 [Example 41, 7-((2-Imino-3-methyl-2,3-dihydro-1H-imidazol-1-yl)methyl)-2-((4-methoxypyridin-2-yl)methyl)-5-(1-methyl-3-(trifluoromethyl)-1H-pyrazol-4-yl)-3,4-dihydroisoquinolin-1(2H)-one] | 0.064 |
| COc1ccnc(CN2CCc3c(cc(Cn4ccn(C)c4=N)cc3-c3cn(C)nc3C)C2=O)c1 [Example 42, 5-(1,3-Dimethyl-1H-pyrazol-4-yl)-7-((2-imino-3-methyl-2,3-dihydro-1H-imidazol-1-yl)methyl)-2-((4-methoxypyridin-2-yl)methyl)-3,4-dihydroisoquinolin-1(2H)-one] | 0.291 |
| COc1ccnc(CN2CCc3c(cc(CN4CCN(C)C4=N)cc3-c3cn(C)nc3C(F)(F)F)C2=O)c1 [Example 43, 7-((2-Imino-3-methylimidazolidin-1-yl)methyl)-2-((4-methoxypyridin-2-yl)methyl)-5-(1-methyl-3-(trifluoromethyl)-1H-pyrazol-4-yl)-3,4-dihydroisoquinolin-1(2H)-one] | < 0.05 |
| COc1ccnc(CN2CCc3c(cc(CN4CCN(C5CC5)C4=N)cc3-c3cn(C)nc3C(F)(F)F)C2=O)c1 [Example 44, 7-((3-Cyclopropyl-2-iminoimidazolidin-1-yl)methyl)-2-((4-methoxypyridin-2-yl)methyl)-5-(1-methyl-3-(trifluoromethyl)-1H-pyrazol-4-yl)-3,4-dihydroisoquinolin-1(2H)-one] | < 0.05 |
| COc1ccnc(CN2CCc3c(cc(Cn4ccn(C5CC5)c4=N)cc3-c3cn(C)nc3C(F)(F)F)C2=O)c1 [Example 45, 7-((3-Cyclopropyl-2-imino-2,3-dihydro-1H-imidazol-1-yl)methyl)-2-((4-methoxypyridin-2-yl)methyl)-5-(1-methyl-3-(trifluoromethyl)-1H-pyrazol-4-yl)-3,4-dihydroisoquinolin-1(2H)-one] | 0.113 |
| COc1ccnc(CN2CCc3c(cc(CN4CCN(C5CC5)C4=N)cc3-c3cn(C)nc3C)C2=O)c1 [Example 46, 7-((3-Cyclopropyl-2-iminoimidazolidin-1-yl)methyl)-5-(1,3-dimethyl-1H-pyrazol-4-yl)-2-((4-methoxypyridin-2-yl)methyl)-3,4-dihydroisoquinolin-1(2H)-one] | 0.449 |
| COc1ccnc(CN2CCc3c(cc(CN4CCN(C)C4=N)cc3-c3cn(C)nc3C)C2=O)c1 [Example 47, 5-(1,3-Dimethyl-1H-pyrazol-4-yl)-7-((2-imino-3-methylimidazolidin-1-yl)methyl)-2-((4-methoxypyridin-2-yl)methyl)-3,4-dihydroisoquinolin-1(2H)-one] | 0.165 |
| COc1ccnc(CN2CCc3c(cc(Cn4ccn(C5CC5)c4=N)cc3-c3cn(C)nc3C)C2=O)c1 [Example 48] | 0.423 |
| CCn1cc(-c2cc(Cn3ccn(C)c3=N)cc3c2CCN(Cc2cc(OC)ccn2)C3=O)cn1 [Example 49, 5-(1-Ethyl-1H-pyrazol-4-yl)-7-((2-imino-3-methyl-2,3-dihydro-1H-imidazol-1-yl)methyl)-2-((4-methoxypyridin-2-yl)methyl)-3,4-dihydroisoquinolin-1(2H)-one] | 0.906 |

The next lines start with the values.

| GI50 [µM] | SMILES |
| --- | --- |
| > 0.938 | Cc1cc(CN2CCc3c(cc(Cn4ccn(C)c4=N)cc3-c3cccnc3C)C2=O)ccc1Cl [Example 27, 2-(4-Chloro-3-methylbenzyl)-7-((2-imino-3-methyl-2,3-dihydro-1H-imidazol-1-yl)methyl)-5-(2-methylpyridin-3-yl)-3,4-dihydroisoquinolin-1(2H)-one] |
| > 0.938 | Cc1cc(CN2CCc3c(cc(Cn4ccn(C)c4=N)cc3-c3ccc(F)cc3C)C2=O)ccc1Cl [Example 28, 2-(4-Chloro-3-methylbenzyl)-5-(4-fluoro-2-methylphenyl)-7-((2-imino-3-methyl-2,3-dihydro-1H-imidazol-1-yl)methyl)-3,4-dihydroisoquinolin-1(2H)-one] |
| < 0.05 | Cc1cc(CN2CCc3c(cc(Cn4ccn(C)c4=N)cc3-c3ccc(F)cc3C)C2=O)ccc1F [Example 31, 5-(4-Fluoro-2-methylphenyl)-2-(4-fluoro-3-methylbenzyl)-7-((2-imino-3-methyl-2,3-dihydro-1H-imidazol-1-yl)methyl)-3,4-dihydroisoquinolin-1(2H)-one] |
| 0.064 | Cc1cc([C@H](C2CC2)N2CCc3c(cc(Cn4ccn(C)c4=N)cc3-c3ccc(F)cc3C)C2=O)ccc1F [Example 32, (S)-2-(Cyclopropyl(4-fluoro-3-methylphenyl)methyl)-5-(4-fluoro-2-methylphenyl)-7-((2-imino-3-methyl-2,3-dihydro-1H-imidazol-1-yl)methyl)-3,4-dihydroisoquinolin-1(2H)-one] |
| 0.553 | Cc1ccnc([C@@H](C2CC2)N2CCc3c(cc(Cn4ccn(C)c4=N)cc3-c3ccc(F)cc3C)C2=O)c1 [Example 33, (R)-2-(Cyclopropyl(4-methylpyridin-2-yl)methyl)-5-(4-fluoro-2-methylphenyl)-7-((2-imino-3-methyl-2,3-dihydro-1H-imidazol-1-yl)methyl)-3,4-dihydroisoquinolin-1(2H)-one] |
| 0.215 | Cc1cc([C@H](C2CC2)N2CCc3c(cc(Cn4ccn(C)c4=N)cc3-c3cccnc3C(F)(F)F)C2=O)ccc1F [Example 34, (S)-2-(Cyclopropyl(4-fluoro-3-methylphenyl)methyl)-7-((2-imino-3-methyl-2,3-dihydro-1H-imidazol-1-yl)methyl)-5-(2-(trifluoromethyl)pyridin-3-yl)-3,4-dihydroisoquinolin-1(2H)-one] |
| 0.201 | Cc1ccnc([C@H](C2CC2)N2CCc3c(cc(Cn4ccn(C)c4=N)cc3-c3cccnc3C(F)(F)F)C2=O)c1 [Example 36, (S)-2-(Cyclopropyl(4-methylpyridin-2-yl)methyl)-7-((2-imino-3-methyl-2,3-dihydro-1H-imidazol-1-yl)methyl)-5-(2-(trifluoromethyl)pyridin-3-yl)-3,4-dihydroisoquinolin-1(2H)-one] |
| < 0.05 | Cc1ccnc([C@H](C2CC2)N2CCc3c(cc(Cn4ccn(C)c4=N)cc3-c3ccc(F)cc3C)C2=O)c1 [Example 37, (S)-2-(Cyclopropyl(4-methylpyridin-2-yl)methyl)-5-(4-fluoro-2-methylphenyl)-7-((2-imino-3-methyl-2,3-dihydro-1H-imidazol-1-yl)methyl)-3,4-dihydroisoquinolin-1(2H)-one] |
| < 0.05 | Cc1cc([C@H](C)N2CCc3c(cc(Cn4ccn(C)c4=N)cc3-c3ccc(F)cc3C)C2=O)ccc1F [Example 40, (S)-5-(4-Fluoro-2-methylphenyl)-2-(1-(4-fluoro-3-methylphenyl)ethyl)-7-((2-imino-3-methyl-2,3-dihydro-1H-imidazol-1-yl)methyl)-3,4-dihydroisoquinolin-1(2H)-one] |

same assay, conditions: Homo sapiens, MV4-11, 120 h, read-out: GI50 on cellular proliferation of MV4:11 human cancer cell lines

| SMILES | GI50 [µM] |
| --- | --- |
| Cc1ccnc(C(C2CC2)N2CCc3c(cc(Cn4ccn(C)c4=N)cc3-c3ccc(F)cc3C)C2=O)c1 (stereo not shown) [Example 30, 2-(Cyclopropyl(4-methylpyridin-2-yl)methyl)-5-(4-fluoro-2-methylphenyl)-7-((2-imino-3-methyl-2,3-dihydro-1H-imidazol-1-yl)methyl)-3,4-dihydroisoquinolin-1(2H)-one] | 0.095 |

From US11999716B2, “WDR5 inhibitors and modulators” (priority 2018, dated 2024)
